These results are taken from patent US5217997A, “Use of L-arginine in the treatment of hypertension and other vascular disorders” (priority 1992, dated 1993).

The test system of data set [1] is spontaneous hypertensive rats. The data set can be described thus: Tail blood pressure of 7-week-old spontaneous hypertensive rats after L- or D-arginine hydrochloride (Example 1). The class given is in vivo, rat. The method, then: (§1) Male spontaneous hypertensive rats and Wistar Kyoto rats were purchased from Charles River (Wilmington, Mass.) and were fed and housed under identical conditions for at least five days before use. The rats were caged in groups of three with food and water ad libitum under an artificial light-dark cycle of twelve hours.
(§2) L- and D-arginine hydrochloride were obtained from Aldrich (Milwaukee, Wis.). Forty-five-day-old spontaneous hypertensive rats were injected with L-arginine hydrochloride, 5, 16, 50, 80, 100 and 500 mg/kg body weight, or D-arginine-hydrochloride, 80 and 100 mg/kg body weight, intraperitoneally,in a final volume of 1.0 ml buffered saline for four consecutive days. The control spontaneous hypertensive rats and Wistar Kyoto rats were injected with saline. Forty-five day old Wistar Kyoto strain rats were injected with 50 mg/kg body weight of L-arginine hydrochloride for four days. Each group consisted of four or five experimental animals. Blood pressure from the tail was measured before the first injection and twenty-four hours after the last arginine administration. Blood pressure was measured with anesthesia, using a pletysmograph.
(§3) Results are expressed as the means ±SEM. A two-way analysis of variance was performed to compare blood values between control, L-arginine and D-arginine treated spontaneous hypertensive rats. Specific differences between groups were tested by the Newman-Keuls test. The null hypothesis was rejected when the p value was less than 0.05.
(§4) The blood pressure of 7-week-old spontaneous hypertensive rats and Wistar Kyoto rats was monitored before and after administration of L- and D-arginine. […] At a dose as low as 16 mg/kg body weight, L-arginine lowered blood pressure by 10 mm Hg […].

The test system of a further data set is Wistar Kyoto rats. The data set can be described thus: Tail blood pressure of age-matched Wistar Kyoto rats after L- or D-arginine hydrochloride (Example 1). As to conditions: for effect on blood pressure: age-matched normotensive Wistar Kyoto rats. Format: in vivo, rat. The method, then:
as §1, §2, §3, §4
For example, blood pressure of 7-week-old Wistar Kyoto rats remained unchanged following four days of treatment with L-arginine (50 mg/kg body weight), 122.3±1.3 mm Hg vs. 124.5±1.7 mm Hg for control and treated, respectively, n=3.

In data set [2] the test system is spontaneous hypertensive rats. The data set can be described thus: Systolic blood pressure in 7-week-old SHR, heme vs. arginine component and heme oxygenase inhibitor (Table 3). The class given is in vivo, rat. Conditions: for reduction of blood pressure: "same dose (15 mg/kg body weight)", control increased by 7.7 mmHg; for Systolic blood pressure, after treatment: n=5, 4 days, heme-L-arginate = 15 mg hemin + 16 mg L-arginine per kg, hemin 15, L-arginine 16, ZnDPBG 7 mg/kg, 23 hours after last injection, *p<0.005 vs control 166.0±2.7; for Systolic blood pressure, after treatment / Systolic blood pressure, before treatment: ±SD; for Systolic blood pressure, before treatment: n=5, baseline. The method, then:
Applicants further examined whether the effect is due to heme or to the arginine component of heme arginate. In separate experiments, applicants treated 7-week-old spontaneous hypertensive rats with heme-L-arginate, hemin alone and L-arginine alone at the same dose (15 mg/kg body weight). […] At the same period, blood pressure in control spontaneous hypertensive rats increased by 7.7 mmHg.
Systolic blood pressure was measured by tail cuff pletysmograph before and 23 hours after the last injection. Results are the same ±SD, n=5 in each group; significance from control spontaneous hypertensive rats after 4 days of treatment with the vehicle (166.0±2.7), *p<0.005.

In the next data set the test system is anesthetized rabbit. As to conditions: cited from earlier work.
Data set [3] has as its system spontaneous hypertensive rats. Conditions: young SHR; cited from earlier work.
For a further data set, the system named is renal cytochrome P-450. Conditions: in vivo; cited from earlier work.

Entries after “also recorded” stand apart in the source; their conditions may differ. Like-named read-outs stand apart in the source and are kept apart here.

`N=C(N)NCCC[C@@H](N)C(=O)O` [D-arginine]: the “effect on blood pressure” value in data set [1] (80 and 100 mg/kg body weight, four days, 7-week-old SHR) is “did not effect the blood pressure; also recorded: had no effect on blood pressure”; in data set [1] (concentrations lower than 80 mg/kg body weight, SHR), “did not alter blood pressure”; with Wistar Kyoto rats it was “Neither L-arginine nor D-arginine had any effect on blood pressure”.
On to `N=C(N)NCCC[C@H](N)C(=O)O` [L-arginine, 2-amino-5-guanidinovaleric acid], for which the “decrease in blood pressure” value in data set [1] (16 mg/kg body weight i.p., four consecutive days, 7-week-old SHR) was determined as 10 mm Hg. Besides, the “maximal effect, decrease in blood pressure” value in data set [1] (100 mg/kg body weight (maximal dose) i.p., four days, 7-week-old SHR) stood at 30 mm Hg. Moreover, the “effect on blood pressure” value in data set [1] (5-500 mg/kg i.p., four days, 7-week-old SHR) is recorded as “dose-dependent decrease in blood pressure”. Also, the “overall reduction of blood pressure” value in data set [1] (at the maximal dose, young SHR) came to 20%. For the same compound, the “effect on blood pressure of higher doses” value in data set [1] (doses higher than 100 mg/kg, 7-week-old SHR) is given as “did not lower blood pressure further”. In addition, the “blood pressure, treated” value with Wistar Kyoto rats (50 mg/kg body weight, four days, 7-week-old WKY, n=3, ±SEM, control 122.3±1.3) is 124.5±1.7 mm Hg. In addition, in the data set with Wistar Kyoto rats, the “effect on blood pressure” value is listed as “Neither L-arginine nor D-arginine had any effect on blood pressure; also recorded: no effect was documented in normotensive rats”. In addition, in data set [2], the “reduction of blood pressure” value worked out at 9.7 mmHg; the “Systolic blood pressure, after treatment” value is 144.4 ± 3.0 mmHg; the “Systolic blood pressure, before treatment” value is reported as 154.1 ± 4.5 mmHg. Moreover, in the data set with anesthetized rabbit (L-arginine administration), the “effect on the inhibition of N-monomethyl-L-arginine” value is reported as “abolished the inhibition of N-monomethyl-L-arginine within fifteen minutes”.
In the case of `CN=C(N)NCCC[C@H](N)C(=O)O` [N-monomethyl-L-arginine], the “effect on mean arterial blood pressure” value with anesthetized rabbit is reported as “dose-dependent increase in mean arterial blood pressure”.
For `[Cl][Sn][Cl]` [SnCl2], the “effect on blood pressure” value in data set [3] is recorded as “marked decrease in blood pressure”. The “effect on renal cytochrome P-450” value in the data set on renal cytochrome P-450 is “depletion of renal cytochrome P-450”.
Turning to Hemin, in data set [2], the “reduction of blood pressure” value is given as 14.3 mmHg; the “Systolic blood pressure, after treatment” value is reported as 142.2 ± 2.4 mmHg; the “Systolic blood pressure, before treatment” value was 156.5 ± 3.3 mmHg.
For “Zn-2,4-deuteropophyrin IX bis glycol [ZnDPBG]”, the “effect on blood pressure” value in data set [2] (inhibitor alone) is listed as “did not have any effect on blood pressure”. Further, in data set [2], the “Systolic blood pressure, after treatment” value worked out at 169.1 ± 2.5 mmHg and the “Systolic blood pressure, before treatment” value came to 154.0 ± 4.0 mmHg.
